pIC50: −log10 of the molar value. Where two headings read alike, the source gives them in different places.
Molecular target: T1, human LPAR1 (Homo sapiens, UniProt Q92633)
T1 construct: expressed in transfected cells
Test: Test Example 1: antagonism against response of LPA-induced increase in intracellular Ca2+ concentration in RH7777 cells stably expressing human LPAR1
Format: cell-based
Details: for IC50: RH7777 cells stably expressing human LPAR1, Fluo-4 fluorescence, FDSS6000, read-out: IC50 value (concentration producing 50% antagonism against response of LPA-induced increase in intracellular Ca2+ concentration) (converted)
Method: (1) Preparation of RH7777 cells stably expressing human LPAR1
The human LPAR1 expression vector was transfected into RH7777 cells to acquire human LPAR1 expressing cells.
(2) Test of antagonism against response of LPA-induced increase in intracellular Ca^2+ concentration
Cells stably expressing human LPAR1 were used for a test of antagonism against response of LPA-induced increase in intracellular Ca^2+ concentration.
The cells were seeded onto the Poly-D-Lysine 96 well black plate and incubated overnight. […] 50 μL of the Basal Buffer (1×HBSS, 20 mM HEPES, 2.5 mM Probenecid, 0.05% BSA, 0.25 mg/mL Amaranth, pH 7.4) containing the test compound was added thereto, followed by incubation at 37° C. for 30 minutes. In FDSS6000 (Hamamatsu Photonics K.K.), LPAs were added, and the change in intracellular Ca^2+ concentration was detected using the fluorescence value of a wavelength of 540 nm by an excitation wavelength of 480 nm as an indicator. […] The Rmax under […] without the test compound was used as the control value. The Rmax under Basal Buffer stimulation with no LPAs or test compounds was used as the basal value.
The percentage (%) of increase in intracellular Ca^2+ concentration was calculated by dividing the value obtained by subtracting the basal value from Rmax in the presence of LPAs and each concentration of the test compound by the value obtained by subtracting the basal value from the control value. The concentration of each test compound was plotted on the X axis and the percentage (%) of increase in intracellular Ca^2+ concentration was plotted on the Y axis, and the IC50 value was calculated by nonlinear regression using XLfit.

T1 sequence (Q92633 whole entry): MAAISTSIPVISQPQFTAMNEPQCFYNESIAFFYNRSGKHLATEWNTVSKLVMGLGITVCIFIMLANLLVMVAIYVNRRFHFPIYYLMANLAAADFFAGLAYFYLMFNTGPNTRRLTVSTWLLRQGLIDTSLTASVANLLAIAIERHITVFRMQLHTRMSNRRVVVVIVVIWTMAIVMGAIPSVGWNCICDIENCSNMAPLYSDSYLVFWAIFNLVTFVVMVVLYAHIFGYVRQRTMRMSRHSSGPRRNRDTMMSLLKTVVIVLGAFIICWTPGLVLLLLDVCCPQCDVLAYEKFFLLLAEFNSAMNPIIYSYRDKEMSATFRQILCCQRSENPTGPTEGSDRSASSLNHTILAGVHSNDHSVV

| IC50 [nM] | SMILES | pIC50 |
| --- | --- | --- |
| 128 | CC(=O)c1ccc(C(C)N(CCCCc2ccccc2)C(=O)NC2(C(=O)O)CC(F)(F)C2)cc1 (centres unmarked) [Example 5-4] | – |
| 1.21 | CCOc1cc([C@@H](C)N(CCCCc2ccccc2)C(=O)NC2CCC[C@H]2C(=O)O)cc(OCC)c1C(C)=O (some centres unmarked) [Example 1-133] | – |
| 1.36 | CCOc1cc([C@@H](C)N(CCCCc2ccccc2)C(=O)NC2(C(=O)O)CC(F)(F)C2)c(Cl)c(OCC)c1C(C)=O [Example 5-46] | – |
| 15.2 | CCOc1cc([C@@H](C)N(CCO[C@@H](C)c2ccccc2)C(=O)N[C@H]2C[C@@](C)(C(=O)O)C2)cc(OCC)c1C(C)=O [Example 4-120] | – |
| 1.62 | CCOc1cc([C@@H](C)N(CCCC(F)(F)c2ccccc2)C(=O)NC2(C(=O)O)CC(F)(F)C2)cc(OCC)c1C1CC1 [Example 4-59] | – |
| 2.53 | CCOc1cc(C(C)N(CCOCc2ccccc2)C(=O)NC2(C(=O)O)CC2)c(Cl)c(OCC)c1C(C)=O (centres unmarked) [Example 5-184] | – |
| 5.33 | CCOc1cc([C@@H](C)N(CCO[C@@H](C)c2ccccc2)C(=O)N[C@]2(C(=O)O)C[C@@H](OCC)C2)cc(OCC)c1C(C)O (some centres unmarked) [Example 4-135] | – |
| 35.4 | CCOc1cc(OCC)cc(C(C)N(CCCCc2ccccc2)C(=O)NC2(C(=O)O)CCCC2)c1 (centres unmarked) [Example 5-10] | – |
| 4.16 | CCOc1cc([C@@H](C)N(CC/C=C(\C)c2ccccc2)C(=O)NC2(C(=O)O)CC(F)(F)C2)cc(OCC)c1C [Example 4-41] | – |
| 608 | CCOc1cc([C@@H](C)N(CCCCc2ccccc2)C(=O)N(C)C2(C(=O)O)CC(F)(F)C2)cc(OCC)c1C [Example 2-1, 1-[{[(1R)-1-(3,5-Diethoxy-4-Methylphenyl)Ethyl](4-Phenylbutyl) Carbamoyl}(Methyl)Amino]-3,3-Difluorocyclobutane-1-Carboxylic Acid] | – |
| 3340 | CCOc1cc(C(C)N(CCO[C@@H](C)c2ccccc2)C(=O)NC2(C(=O)OC(C)(C)C)CC(OCC)C2)c(Cl)c(OCC)c1C(C)=O (some centres unmarked) [Example 6-15] | – |
| 2.75 | CCOc1cc([C@@H](C)N(CCCCc2ccccc2)C(=O)NC2(C(=O)NS(C)(=O)=O)CC(F)(F)C2)cc(OCC)c1C(C)=O [Example 7-1, 1-({[(1R)-1-(4-Acetyl-3,5-Diethoxyphenyl)Ethyl](4-Phenylbutyl) Carbamoyl}Amino)-3,3-Difluoro-N-(Methanesulfonyl)Cyclobutane-1-Carboxamide] | – |
| 1.04 | CCOc1cc(C(C)N(CCOCc2ccccc2)C(=O)NC2(C(=O)O)CC(F)(F)C2)c(Cl)c(OCC)c1C1CC1 (centres unmarked) [Example 5-197] | – |
| 6.91 | CCOc1cc([C@@H](C)N(CCCc2ccc(F)cc2)C(=O)NC2(C(=O)O)CC(F)(F)C2)cc(OCC)c1C [Example 4-5] | – |
| 4.18 | CCOc1cc([C@@H](C)N(CCO[C@H](C)c2ccccc2)C(=O)NC2(C(=O)O)CCOCC2)c(Cl)c(OCC)c1C(C)=O [Example 5-34] | – |
| 195 | COc1cc(OC)nc(C(C)N(CCCCc2ccccc2)C(=O)NC2(C(=O)O)CC(F)(F)C2)n1 (centres unmarked) [Example 5-87] | – |
| 1.15 | CCOc1cc([C@@H](C)N(CCCC(F)(F)c2ccccc2)C(=O)NC2(C(=O)O)CC(F)(F)C2)cc(OCC)c1C [Example 4-58] | – |
| 6.66 | CCOc1c(C(C)=O)ccc([C@@H](C)N(CCO[C@@H](C)c2ccccc2)C(=O)NC2(C(=O)O)CC(OC)C2)c1C (some centres unmarked) [Example 4-130] | – |
| 1.27 | CCOc1cc([C@@H](C)N(CCCC(F)(F)c2ccccc2)C(=O)NC2(C(=O)O)CC(OC)C2)cc(OCC)c1C1CC1 (some centres unmarked) [Example 4-67] | – |
| – | COc1cc(C(C)N(CCCCc2ccccc2)C(=O)NC2(C(=O)O)CC(F)(F)C2)cc(OC)c1C (centres unmarked) [Example 1-66] | 8.40 |
| 2.08 | CCOc1cc(C(C)N(CCO[C@@H](C)c2ccccc2)C(=O)NC2(C(=O)O)CC(OCC)C2)c(Cl)c(OCC)c1C(C)=O (some centres unmarked) [Example 5-223] | – |
| 6.15 | CCOc1cc(C(C)N(CCCCc2ccccc2)C(=O)NC2(C(=O)O)CC(F)(F)C2)cc(OCC)c1C#N (centres unmarked) [Example 1-41] | – |
| 7.59 | CCOc1cc([C@@H](C)N(CCC(F)(F)Cc2ccccc2)C(=O)N[C@]2(C(=O)O)C[C@@H](OC)C2)cc(OCC)c1C(C)=O [Example 4-89] | – |

Reference: patent publication US12338203B2 (TAISHO PHARMACEUTICAL CO., LTD., priority 2019, dated 2025)
